# Measurements published in US20240389581A1, “SYNERGISTIC PESTICIDAL COMPOSITIONS AND METHODS FOR DELIVERY OF INSECTICIDAL ACTIVE INGREDIENTS” (TERRAMERA, INC., priority 2021, published 2024).
# Columns and labels:
# [1] = system: Trichoplusia ni (cabbage looper) larvae; assay: In-vitro insecticidal efficacy (mortality and bioactivity, treated artificial diet, Abbott and Colby formulas) against Trichoplusia ni; format: in vivo; conditions: aliphatic acid (salt) 500 ppm, alone or combined; for Survival Rate (100-(mortality + stunted)): Table 70B, Coragen 0.505 ppm (0.09292 ppm chlorantraniliprole)
# Procedure: An artificial diet suitable for Trichoplusia ni (cabbage looper caterpillar) was prepared from a commercially available general purpose lepidoptera artificial diet premix (such as General Purpose Lepidoptera Diet available from Frontier Scientific Services, Newark, DE) and mixed in a heated liquid agar media (0.022 g agar per ml of water). The liquid artificial diet and agar media was then used to fill each well of a transparent 96-well treatment plate with 200 μL of the artificial diet and agar media, which was allowed to solidify at room temperature and stored at approximately 4 C.
# A 20 μL treatment sample of each treatment formulation was then placed on top of the solidified artificial diet media in a well of a 96 well plate and allowed to dry overnight.
# (§1) The following day, one neonate Trichoplusia ni (cabbage looper) larva (hatched from eggs obtained from the Benzon Research, Inc. of Carlisle, PA, USA) was added to each well of the plate, after which the wells were sealed with a perforated transparent film, allowing air and moisture exchange. The plates were kept in a suitable regulated indoor incubation environment and the larvae were allowed to feed on the treatment overlaid diet/agar media for 5 days. […] Each experiment contained 8 replicates (larvae cells) for each treatment.
# (§2) While for SF<1, antagonism is present and for SF=1, the efficacy of the compounds is merely additive.
# as §1, with “such as available” for “obtained”, “from” for “from the”
# as §2
# [2] = system: Trichoplusia ni (cabbage looper) larvae; assay: In-planta insecticidal efficacy (sprayed green cabbage plants, larval survival, Abbott and Colby formulas) against Trichoplusia ni; format: in vivo; conditions: Exirel at […] ([…] cyantraniliprole), aliphatic acids at 750 ppm; for Observed Efficacy, W (%): Abbott formula vs 10% isopropanol control; for Survival Rate (%): in-planta, T. ni larvae on sprayed cabbage, 10% isopropanol
# Procedure: Water and 10% isopropanol were tested as control treatments.
# Green cabbage plants (Brassica oleracea var. capitate, Danish Ballhead cultivar) were grown from seed (available from West Coast Seeds, Delta, BC, Canada) in potting soil for 4-6 weeks in a pest-free indoor growing environment. At between 4-6 weeks of age, each cabbage plant was sprayed with 20 mL of treatment solution using a pressurized CO2 sprayer from approximately 18 inches above the plant, and allowed to dry.
# as §2
# Cyantraniliprole was provided as the active ingredient in Exirel® insecticide (available from FMC Corp., Philadephia, PA, USA), and is present as 10% w/w of the Exirel® insecticide product formulation.
# [3] = system: Trichoplusia ni (cabbage looper) larvae; assay: as above; format: in vivo; conditions: aliphatic acid 750 ppm, alone or combined; for Observed Efficacy, W: Abbott formula
# [4] = system: Fusarium oxysporum; assay: Synergistic Growth Inhibition Assay (MIC / FIC index, 96-well microtiter, resazurin) against Fusarium oxysporum; format: cell-based; conditions: Compound B tested alone; 24 hour incubation
# Procedure: In the Synergistic Growth Inhibition Assay used in accordance with some embodiments of the present disclosure, multiple dilutions of combinations of pesticidal active ingredient and at least one C6-C10 saturated or unsaturated aliphatic acid agents are tested in individual cells for inhibitory activity against a target pest or pathogenic organism. […] In a further such embodiment, the combinations of pesticidal active ingredient and C6-C10 (or alternatively C11 or C12) saturated or unsaturated aliphatic acid agents may be tested in increasing concentrations.
# Thus, each well of the microtiter plate is a unique combination of the two agents, at which inhibitory efficacy of the combination against the target pest or pathogen can be determined.
# In one embodiment according to the present disclosure, for each row of microtiter cells in the Synergistic Growth Inhibition Assay, the FIC index is calculated from the lowest concentration of the pesticidal active ingredient and one or more C6-C10 saturated or unsaturated aliphatic acid agents necessary to inhibit growth of a target pest or pathogen. The FIC of each component is derived by dividing the concentration of the agent present in that well of the microtiter plate by the minimal inhibitory concentration (MIC) needed of that agent alone to inhibit growth of the target pest or pathogen. […] The FIC index is calculated for each row as follows: […]
# [5] = Table 69B, Coragen 0.2525 ppm (0.04646 ppm chlorantraniliprole), in-vitro
# [6] = Table 72, Coragen […] (0.104 ppm chlorantraniliprole)
# [7] = Table 71, Coragen […] (0.105 ppm chlorantraniliprole)
smiles,measurement,setting,value
CCCCC(CC)C(=O)O (stereo not drawn) [2-ethylhexanoic acid],Survival Rate (100-(mortality + stunting)),[1]; [5],95.83%
CCCCC(O)C(=O)O (stereo not drawn) [2-hydroxyhexanoic acid],Survival Rate (100-(mortality + stunting)),[1]; [5],91.67%
CCCCCCC(O)C(=O)O (stereo not drawn) [2-hydroxyoctanoic acid],Survival Rate (100-(mortality + stunting)),[1]; [5],100.00%
CCCCCCCCC(C)C(=O)O (stereo not drawn) [2-methyldecanoic acid],Survival Rate (100-(mortality + stunting)),[1]; [5],87.50%
CCCCCCC(C)C(=O)O (stereo not drawn) [2-methyloctanoic acid],Survival Rate (100-(mortality + stunting)),[1]; [5],95.83%
"CC(O)CC(=O)O (stereo not drawn) [3-Hydroxybutyric acid, 3-hydroxybutyric acid]",Survival Rate (100-(mortality + stunting)),[1]; [5],95.83%
"CCCCC=CCC(=O)O [3-Octenoic acid, 3-octenoic acid]",Survival Rate (100-(mortality + stunting)),[1]; [5],83.33%
CCCC=CCC(=O)O [3-heptenoic acid],Survival Rate (100-(mortality + stunted)),[1]; in-vitro,95.83%
CCCCCCCC(O)CC(=O)O (stereo not drawn) [3-hydroxdecanoic acid],Survival Rate (100-mortality),"[1]; Table 69A, Coragen 0.2525 ppm (0.04646 ppm chlorantraniliprole), in-vitro",100.00%
same,"Observed Efficacy (mortality), W","[1]; Table 69A, Coragen 0.2525 ppm, Abbott formula",0.00%
same,Survival Rate (100-(mortality + stunting)),[1]; [5],87.50%
same,"Observed Efficacy (bioactivity), W","[1]; Table 69B, bioactivity = mortality + growth stunting, Coragen 0.2525 ppm, Abbott formula",0.00%
CCCC(C)CC(=O)O (stereo not drawn) [3-methylhexanoic acid],Survival Rate (100-(mortality + stunting)),[1]; [5],83.33%
CCCCCCC(C)CC(=O)O (stereo not drawn) [3-methylnonanoic acid],Survival Rate (100-(mortality + stunting)),[1]; [5],79.17%
CCCCCC=CCC(=O)O [3-nonenoic acid],Survival Rate (100-(mortality + stunted)),[1]; in-vitro,95.83%
CCC(C)CCC(=O)O (stereo not drawn) [4-methylhexanoic acid],Survival Rate (100-(mortality + stunting)),[1]; [5],100.00%
C=CCCCC(=O)O [5-hexenoic acid],Survival Rate (100-(mortality + stunting)),[1]; [5],100.00%
"C=CCCCCCCCC(=O)O [9-Decenoic acid, 9-decenoic acid]",Survival Rate (100-(mortality + stunting)),[1]; [5],91.67%
same,"Observed Efficacy, W (%)",[2],−0.4%
same,Survival Rate (%),[2],65.8%
O=C(O)CCCCCCCCCO [10-hydroxydecanoic acid],Survival Rate (100-(mortality + stunting)),[1]; [5],75.00%
same,Survival Rate,[3]; [6],73.50%
same,"Observed Efficacy, W","[3]; Table 72, Coragen […]",0.00%
same,Survival Rate,"[3]; Table 73, Coragen […] (0.104 ppm chlorantraniliprole)",40.50%
same,"Observed Efficacy, W","[3]; Table 73, Coragen […]",36.72%
O=C(O)CCCCCCCCCCCO [12-hydroxydodecanoic acid],Survival Rate (100-(mortality + stunting)),[1]; [5],91.67%
"C/C=C/C=C/C(=O)[O-].[K+] [(2E,4E)-2,4 hexadienoic acid potassium salt]",Survival Rate (100-(mortality + stunting)),[1]; [5],95.83%
same,Survival Rate (100-(mortality + stunted)),[1]; in-vitro,70.83%
"C/C=C/C=C/C(=O)O [(2E,4E)-2,4 hexadienoic acid]",Survival Rate (100-(mortality + stunting)),[1]; [5],79.17%
"C/C=C/C=C/C(=O)O [(2E,4E)-2,4-hexadienoic acid]",MIC (B),[4],125 µg/mL
CCCCCCCCCC(=O)O [Decanoic acid],Survival Rate (100-(mortality + stunting)),[1]; [5],83.33%
CCCCCCCCCCCC(=O)O [Dodecanoic acid],Survival Rate (100-(mortality + stunting)),[1]; [5],79.17%
CCCCCCC(=O)O [Heptanoic acid],Survival Rate (100-(mortality + stunting)),[1]; [5],91.67%
CCCCCC(=O)O [Hexanoic acid],Survival Rate (100-(mortality + stunting)),[1]; [5],87.50%
same,Survival Rate (100-(mortality + stunted)),[1]; in-vitro,100%
same,MIC (B),[4],290 µg/mL
CCCCCCCCC(=O)O [Nonanoic acid],Survival Rate (100-(mortality + stunting)),[1]; [5],95.83%
same,Survival Rate (100-(mortality + stunted)),[1]; in-vitro,62.50%
CCCCCCCC(=O)O [Octanoic acid],Survival Rate (100-(mortality + stunted)),[1]; in-vitro,95.83%
CCCCCCCCCC(=O)[O-].[K+] [Potassium Caprate],"Observed Efficacy, W (%)",[2],5.5%
same,Survival Rate (%),[2],69.7%
"CCCCCCC/C=C/C(=O)O [Trans-2-decenoic acid, trans-2-decenoic acid]",Survival Rate (100-(mortality + stunting)),[1]; [5],79.17%
same,Survival Rate,[3]; [6],81.00%
same,"Observed Efficacy, W","[3]; Table 72, Coragen […]",0.00%
same,Survival Rate (%),[2],66.1%
"CCC/C=C/C(=O)O [Trans-2-hexenoic acid, trans-2-hexenoic acid]",Survival Rate (100-(mortality + stunting)),[1]; [5],91.67%
same,Survival Rate,[3]; [7],56.50%
same,"Observed Efficacy, W","[3]; Table 71, Coragen […]",18.71%
"CCCCC/C=C/C(=O)O [Trans-2-octenoic acid, trans-2-octenoic acid]",Survival Rate (100-(mortality + stunting)),[1]; [5],70.83%
same,Survival Rate (100-(mortality + stunted)),[1]; in-vitro,87.50%
same,Survival Rate,[3]; [6],77.00%
same,"Observed Efficacy, W","[3]; Table 72, Coragen […]",0.00%
"CC/C=C/CC(=O)O [Trans-3-hexenoic acid, trans-3-hexenoic acid]",Survival Rate (100-(mortality + stunting)),[1]; [5],91.67%
same,Survival Rate,[3]; [7],64.50%
same,"Observed Efficacy, W","[3]; Table 71, Coragen […]",7.19%
CC/C=C\CC(=O)O [cis-3-hexenoic acid],Survival Rate (100-(mortality + stunting)),[1]; [5],83.33%
"CCC/C=C/C(=O)[O-].[K+] [trans-2-Hexenoic acid, potassium salt]","Observed Efficacy, W (%)",[2],11.3%
same,Survival Rate (%),[2],73.6%
CCC/C=C/C(=O)[O-].[K+] [trans-2-hexenoic acid potassium salt],Survival Rate (100-(mortality + stunting)),[1]; [5],91.67%
same,Survival Rate (100-(mortality + stunted)),[1]; in-vitro,83.33%
CCCCCC/C=C/C(=O)O [trans-2-nonenoic acid],Survival Rate (100-(mortality + stunting)),[1]; [5],75.00%
same,Survival Rate (100-(mortality + stunted)),[1]; in-vitro,100%
CCCCCCCC/C=C/C(=O)O [trans-2-undecenoic acid],Survival Rate (100-(mortality + stunting)),[1]; [5],87.50%
"CC/C=C/CC(=O)[O-].[K+] [trans-3-Hexenoic acid, potassium salt]","Observed Efficacy, W (%)",[2],7.1%
same,Survival Rate (%),[2],70.8%
CCCC/C=C/CC(=O)O [trans-3-octenoic acid],Survival Rate (100-(mortality + stunting)),[1]; [5],83.33%
